From US10357036B2, “Compounds for controlling arthropods” (priority 2015, dated 2019)

Assays:
Musca domestica = Musca domestica test; format: in vivo; conditions: 100 ppm; adult houseflies; after 2 days
Procedure: (§1) • Solvent: dimethyl sulfoxide
To produce a suitable active ingredient formulation, 10 mg of active ingredient are mixed with 0.5 ml of dimethyl sulfoxide, and the concentrate is diluted with water to the desired concentration.
Vessels containing a sponge treated with sugar solution and the active ingredient formulation of the desired concentration are populated with 10 adult houseflies (Musca domestica).

Tetranychus urticae = Tetranychus urticae spray test, OP-resistant (bean leaf discs); format: in vivo; conditions: 100 g/ha; after 6 days
Procedure: After 6 days, the efficacy in % is determined.

Boophilus microplus = Boophilus microplus injection test; format: in vivo; conditions: 20 μg/animal; assessed after 7 days
Procedure: as §1
1 μl of the active ingredient solution is injected into the abdomen of 5 engorged adult female cattle ticks (Boophilus microplus). The animals are transferred into dishes and kept in a climate-controlled room.

Phaedon cochleariae = Phaedon cochleariae spray test; conditions: 100 g/ha; after 7 days
Spodoptera frugiperda = Spodoptera frugiperda spray test; format: in vivo; conditions: 100 g/ha; after 7 days
Ctenocephalides felis = Ctenocephalides felis oral test; format: in vivo; conditions: 100 ppm in citrated cattle blood; after 2 days
Procedure: • Solvent: Dimethyl Sulfoxide
To produce a suitable active ingredient formulation, 10 mg of active ingredient are mixed with 0.5 ml of dimethyl sulfoxide. Dilution with citrated cattle blood gives the desired concentration.
About 20 unfed adult cat fleas (Ctenocephalides fells) are placed into a chamber which is closed at the top and bottom with gauze. A metal cylinder whose bottom end is closed with parafilm is placed onto the chamber. The cylinder contains the blood/active ingredient formulation, which can be imbibed by the fleas through the parafilm membrane.

Rhipicephalus sanguineus = Rhipicephalus sanguineus in vitro contact test with adult brown dog ticks; format: in vivo; conditions: application rate 5 μg/cm^2 (=500 g/ha); after 48 h; dead or moribund ticks
Procedure: For the coating of the test tubes, 9 mg of active ingredient are first dissolved in 1 ml of acetone p.a. and then diluted to the desired concentration with acetone p.a. 250 μl of the solution are distributed homogeneously on the inner walls and the base of a 25 ml glass tube by turning and rocking on an orbital shaker (rocking rotation at 30 rpm for 2 h). With 900 ppm of active ingredient solution and internal surface area 44.7 cm^2, given homogeneous distribution, an area-based dose of 5 μg/cm^2 is achieved.
After the solvent has evaporated off, the tubes are populated with 5-10 adult dog ticks (Rhipicephalus sanguineus), sealed with a perforated plastic lid and incubated in a horizontal position in the dark at room temperature and ambient humidity. After 48 h, efficacy is determined. To this end, the ticks are knocked to the base of the tube and incubated on a hotplate at 45-50° C. for not more than 5 min. Ticks which remain motionless on the base or move in such an uncoordinated manner that they are unable to deliberately avoid the heat by climbing upwards are considered to be dead or moribund.
An efficacy of 100% means that all the ticks were dead or moribund. 0% efficacy means that none of the ticks were harmed.

| Compound | efficacy (rate of extermination) (Musca domestica) [%] | efficacy (Tetranychus urticae) [%] | efficacy (laying of fertile eggs) (Boophilus microplus) [%] | efficacy (Phaedon cochleariae) [%] | efficacy (Spodoptera frugiperda) [%] | efficacy (rate of extermination) (Ctenocephalides felis) [%] | efficacy (Rhipicephalus sanguineus) [%] |
| --- | --- | --- | --- | --- | --- | --- | --- |
| CCCCC(=O)NCc1cc(-c2cnn(-c3c(Cl)cc(C(F)(C(F)(F)F)C(F)(F)F)cc3C(F)F)c2)ccc1F [Ia-59] | 100 | 100 | 100 | 100 | 100 | 100 |  |
| O=C(NCc1cccc(-c2cnn(-c3c(Cl)cc(C(F)(C(F)(F)F)C(F)(F)F)cc3Cl)c2)c1)C1CC1 [Ia-41] | 100 |  | 100 | 100 |  | 100 |  |
| CCC(=O)NCc1cccc(-c2cnn(-c3c(Cl)cc(C(F)(C(F)(F)F)C(F)(F)F)cc3C(F)F)c2)c1F [Ia-143] | 100 |  | 100 | 100 | 100 | 100 | 80 |
| CC(=O)NCc1cccc(-c2cnn(-c3c(Cl)cc(C(F)(C(F)(F)F)C(F)(F)F)cc3OC(F)(F)F)c2)c1 [Ia-38] | 100 |  | 100 | 100 | 100 | 100 | 80 |
| CCC(=O)NCc1cccc(-c2cnn(-c3c(Cl)cc(C(F)(C(F)(F)F)C(F)(F)F)cc3C(F)(F)F)c2)c1F [Ia-150] | 100 | 90 | 100 | 100 | 100 | 100 |  |
| CN(Cc1cc(-c2cnn(-c3c(Cl)cc(C(F)(C(F)(F)F)C(F)(F)F)cc3Cl)c2)ccc1Cl)S(C)(=O)=O [Ic-04] | 100 | 100 |  | 100 | 100 | 100 |  |
| N#Cc1cc(C(F)(C(F)(F)F)C(F)(F)F)cc(Cl)c1-n1cc(-c2cccc(CNC(=O)C3CC3)c2)cn1 [Ia-98] | 90 | 90 | 100 | 100 |  | 100 |  |
| CCC(=O)NCc1cc(-c2cnn(-c3c(Cl)cc(C(F)(C(F)(F)F)C(F)(F)F)cc3C(F)(F)F)c2)ccc1Cl [Ia-29] | 100 |  | 100 | 100 | 100 | 100 | 100 |
| CCC(=O)NCc1cc(-c2cnn(-c3c(Cl)cc(C(F)(C(F)(F)F)C(F)(F)F)cc3Cl)c2)ccc1C(F)(F)F [Ia-72] | 100 | 100 | 100 | 100 | 100 | 100 |  |
| CC(=O)NCc1cccc(-c2cnn(-c3c(Cl)cc(C(F)(C(F)(F)F)C(F)(F)F)cc3C(F)F)c2)c1F [Ia-144] | 100 | 90 | 100 | 100 | 100 | 100 |  |
| CSc1cc(C(F)(C(F)(F)F)C(F)(F)F)cc(Cl)c1-n1cc(-c2ccc(F)c(CNC(=O)C3CC3)c2)cn1 [Ia-12] | 100 | 100 | 100 | 100 | 83 | 100 |  |
| CS(=O)(=O)NCc1cc(-c2cnn(-c3c(Cl)cc(C(F)(C(F)(F)F)C(F)(F)F)cc3Cl)c2)ccc1Cl [Ic-01] | 90 | 100 | 100 | 100 | 100 | 100 |  |
| CCC(=O)NCc1cc(-c2cnn(-c3c(Cl)cc(C(F)(C(F)(F)F)C(F)(F)F)cc3Cl)c2)cnc1Cl [Ia-132] | 100 |  | 100 | 100 | 100 | 100 |  |
| CC(=O)NCc1cc(-c2cnn(-c3c(Cl)cc(C(F)(C(F)(F)F)C(F)(F)F)cc3Cl)c2)ccc1C(F)(F)F [Ia-74] | 100 | 100 | 100 | 100 | 100 | 100 |  |
| CCC(=O)NCc1cc(-c2cnn(-c3c(Cl)cc(C(F)(C(F)(F)F)C(F)(F)F)cc3OC(F)(F)F)c2)cnc1Cl [Ia-133] | 100 |  | 100 | 100 | 100 | 100 |  |
| CCC(=O)NCc1c(F)ccc(-c2cnn(-c3c(Cl)cc(C(F)(C(F)(F)F)C(F)(F)F)cc3C(F)(F)F)c2)c1F [Ia-146] | 100 |  | 100 | 100 | 100 | 100 | 100 |
| CC(=O)NCc1cccc(-c2cnn(-c3c(Cl)cc(C(F)(C(F)(F)F)C(F)(F)F)cc3C(F)F)c2)c1 [Ia-02] | 100 | 100 | 100 | 100 | 100 | 100 |  |
| CCC(=O)NCc1cc(-c2cnn(-c3c(Cl)cc(C4(C(F)(F)F)CC4)cc3Cl)c2)ccc1Cl [Ia-128] | 100 |  |  | 100 | 100 | 100 |  |
| CCC(=O)NCc1c(F)ccc(-c2cnn(-c3c(Cl)cc(C(F)(C(F)(F)F)C(F)(F)F)cc3Cl)c2)c1F [Ia-148] | 100 |  | 100 | 100 | 100 | 100 |  |
| CC(=O)NCc1cccc(-c2cnn(-c3c(Cl)cc(C(F)(C(F)(F)F)C(F)(F)F)cc3C(F)(F)F)c2)c1F [Ia-151] | 100 |  | 100 | 100 | 100 | 100 |  |
| O=C(CC(F)(F)F)NCc1cc(-c2cnn(-c3c(Cl)cc(C(F)(C(F)(F)F)C(F)(F)F)cc3Cl)c2)ccc1Cl [Ia-35] | 100 |  | 100 |  | 100 | 100 |  |
| N-(2-chloro-5-{1-[2,6-dichloro-4-(1,1,1,2,3,3,3-heptafluoropropan-2-yl)phenyl]-1H-pyrazol-4-yl}benzyl)-N-methylpropanamide [Ia-22] |  | 90 | 100 | 100 |  | 100 | 80 |
| CCC(=O)NC1CCc2ccc(-c3cnn(-c4c(Cl)cc(C(F)(C(F)(F)F)C(F)(F)F)cc4C(F)(F)F)c3)cc21 (stereo not shown) [I-Tc-02] |  |  | 100 |  | 100 | 100 | 80 |
| CC(C)CC(=O)NCc1cc(-c2cnn(-c3c(Cl)cc(C(F)(C(F)(F)F)C(F)(F)F)cc3C(F)F)c2)ccc1F [Ia-61] | 80 | 70 | 100 |  | 100 | 100 |  |
| O=C(NCc1cc(-c2cnn(-c3c(Cl)cc(C(F)(C(F)(F)F)C(F)(F)F)cc3Cl)c2)cnc1Cl)C1CC1 [Ia-18] | 100 |  | 100 | 100 | 100 | 100 |  |
| O=C(NCc1cc(-c2cnn(-c3c(Cl)cc(C(F)(C(F)(F)F)C(F)(F)F)cc3OC(F)(F)F)c2)ccc1F)C1CC1 [Ia-40] | 100 |  | 100 | 100 | 100 | 100 | 80 |
